Like-named read-outs stand apart in the source and are kept apart here.

The test concerns the target T1, F508del (Homo sapiens, UniProt P13569, DEL508-508).
T1 construct: expressed in transfected cells
Description: Protocol 2: FRET membrane potential optical assay (VIPR), identification of correction compounds. It counts as cell-based. In outline:
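FRET read-out (CC2-DMPE donor, DiSBAC2(3) voltage-sensitive acceptor) of membrane depolarization on VIPR II. Corrector candidates incubated 16 hrs at 37° C. with NIH3T3 cells expressing F508del; temperature correction at 27° C. as positive control; stimulation by 10 μM forskolin, 20 μM genistein, chloride-free gluconate bath.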

Setting [1] is: F508del CFTR modulator activity, compounds of Table 1, read-out: EC30.
[2] abbreviates: Table 3, compounds of Table 1 as modulators of CFTR activity, protocol not stated.

T1 sequence (P13569 with tags, fused parts or gaps DEL508-508): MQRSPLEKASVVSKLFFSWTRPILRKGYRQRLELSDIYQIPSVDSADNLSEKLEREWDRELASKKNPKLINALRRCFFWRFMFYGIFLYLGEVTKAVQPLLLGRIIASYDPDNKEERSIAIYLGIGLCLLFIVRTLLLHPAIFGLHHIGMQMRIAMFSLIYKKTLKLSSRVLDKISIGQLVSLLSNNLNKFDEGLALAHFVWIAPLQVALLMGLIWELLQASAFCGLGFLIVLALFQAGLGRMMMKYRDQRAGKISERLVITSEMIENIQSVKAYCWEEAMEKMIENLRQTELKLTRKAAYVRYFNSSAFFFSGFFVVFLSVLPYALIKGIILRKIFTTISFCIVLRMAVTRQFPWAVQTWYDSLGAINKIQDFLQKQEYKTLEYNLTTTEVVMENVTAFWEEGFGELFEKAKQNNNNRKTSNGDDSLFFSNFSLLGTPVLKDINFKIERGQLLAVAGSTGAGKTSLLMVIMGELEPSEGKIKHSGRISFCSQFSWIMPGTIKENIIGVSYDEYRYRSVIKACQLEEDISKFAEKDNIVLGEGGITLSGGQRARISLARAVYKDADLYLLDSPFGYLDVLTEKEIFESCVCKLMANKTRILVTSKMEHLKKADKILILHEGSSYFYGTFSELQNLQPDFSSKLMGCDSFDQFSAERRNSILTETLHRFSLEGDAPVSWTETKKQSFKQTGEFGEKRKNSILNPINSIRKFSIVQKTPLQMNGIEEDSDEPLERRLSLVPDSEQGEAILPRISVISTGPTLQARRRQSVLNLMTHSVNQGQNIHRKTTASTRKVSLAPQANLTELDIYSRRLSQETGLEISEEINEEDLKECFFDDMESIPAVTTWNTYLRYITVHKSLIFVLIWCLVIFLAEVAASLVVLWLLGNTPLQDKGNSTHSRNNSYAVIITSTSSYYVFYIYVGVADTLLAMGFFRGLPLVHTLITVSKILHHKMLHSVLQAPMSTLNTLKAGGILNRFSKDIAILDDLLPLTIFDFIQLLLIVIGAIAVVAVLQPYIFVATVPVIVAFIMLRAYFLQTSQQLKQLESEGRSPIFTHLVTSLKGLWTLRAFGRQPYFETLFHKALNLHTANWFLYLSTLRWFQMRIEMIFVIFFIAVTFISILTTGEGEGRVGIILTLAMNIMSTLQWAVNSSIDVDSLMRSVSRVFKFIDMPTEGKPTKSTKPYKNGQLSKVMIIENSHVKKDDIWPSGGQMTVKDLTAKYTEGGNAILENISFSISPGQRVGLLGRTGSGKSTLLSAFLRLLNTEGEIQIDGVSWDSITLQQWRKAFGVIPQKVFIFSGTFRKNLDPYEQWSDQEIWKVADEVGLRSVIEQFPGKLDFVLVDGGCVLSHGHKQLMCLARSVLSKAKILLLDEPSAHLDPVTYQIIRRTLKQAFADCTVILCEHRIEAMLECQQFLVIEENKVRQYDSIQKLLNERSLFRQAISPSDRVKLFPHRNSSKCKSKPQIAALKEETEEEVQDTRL

The EC30 is the concentration at which the effect reaches the 30% level. Regarding `Cc1cc(C(=O)c2ccccc2)cc(C)c1Oc1nc(-c2cc(F)cc(OCC(C)C)c2)ccc1C(=O)NS(=O)(=O)c1cccc(N)n1` [Compound 2669, N-[(6-amino-2-pyridyl)sulfonyl]-2-(4-benzoyl-2,6-dimethyl-phenoxy)-6-(3-fluoro-5-isobutoxy-phenyl)pyridine-3-carboxamide], the EC30 under setting [1] is under 3000 nM. As for `COC[C@@H]1CCCN1c1cccc(S(=O)(=O)NC(=O)c2cccnc2N2CC(C)CC2(C)C)n1` (stereo partly drawn) [Compound 2024, N—[[6-[(2S)-2-(methoxymethyl)pyrrolidin-1-yl]-2-pyridyl]sulfonyl]-2-(2,2,4-trimethylpyrrolidin-1-yl)pyridine-3-carboxamide], the EC30 under setting [1] fell in the range of 3000 to 10000 nM. With `Cc1cccc(C)c1Cn1nc(C(C)(C)C)cc1C(=O)NS(=O)(=O)c1ccccc1F` [Compound 57, 5-tert-butyl-2-[(2,6-dimethylphenyl)methyl]-N-(2-fluorophenyl)sulfonyl-pyrazole-3-carboxamide], the EC30 result under setting [2] was “+++ (“+++” means <3 uM)”.

With `CC1CN(c2ncccc2C(=O)NS(=O)(=O)c2cccc(OC3C=CCCC3)n2)C(C)(C)C1` (centres unmarked) [Compound 2147, N-[(6-cyclohex-2-en-1-yloxy-2-pyridyl)sulfonyl]-2-(2,2,4-trimethylpyrrolidin-1-yl)pyridine-3-carboxamide], the EC30 under setting [1] is under 3000 nM. Regarding `Cc1ccc(Oc2nc(C(C)(C)C)ccc2C(=O)NS(=O)(=O)c2cccc(N)n2)c(C)c1` [Compound 204, N-[(6-amino-2-pyridyl)sulfonyl]-6-tert-butyl-2-(2,4-dimethylphenoxy)pyridine-3-carboxamide], the EC30 result under setting [2] is reported as “+++ (“+++” means <3 uM)”.

Turning to `CC1CN(c2ncccc2C(=O)NS(=O)(=O)c2cccc(OC3CCC3)n2)C(C)(C)C1` (centres unmarked) [Compound 2371, N—[[6-(cyclobutoxy)-2-pyridyl]sulfonyl]-2-(2,2,4-trimethylpyrrolidin-1-yl)pyridine-3-carboxamide], the 30% effect concentration (EC30) under setting [1] is under 3000 nM. Still for that read-out and setting: the result for `C[C@@H]1CN(c2nc(-c3cccc4c3OCC4)ccc2C(=O)NS(=O)(=O)c2ccc[nH]c2=O)C(C)(C)C1` [Compound 2583, 6-(2,3-dihydrobenzofuran-7-yl)-N-[(2-oxo-1H-pyridin-3-yl)sulfonyl]-2-[(4S)-2,2,4-trimethylpyrrolidin-1-yl]pyridine-3-carboxamide] reads 3000 to 10000 nM. With `CC(C)(C)c1cc(C(=O)NS(=O)(=O)c2cccc(N)c2)n(Cc2cccc3ccccc23)n1` [Compound 295, N-(3-aminophenyl)sulfonyl-5-tert-butyl-2-(1-naphthylmethyl)pyrazole-3-carboxamide], under setting [2], the 30% effect concentration (EC30) entry is “++ (“++” means between 3 uM and 10 uM)”.

In the case of `CC1CN(c2ncccc2C(=O)NS(=O)(=O)c2cccc(Nc3cccc4cnccc34)n2)C(C)(C)C1` (centres unmarked) [Compound 2274, N—[[6-(5-isoquinolylamino)-2-pyridyl]sulfonyl]-2-(2,2,4-trimethylpyrrolidin-1-yl)pyridine-3-carboxamide], the EC30 under setting [1] lay within 3000 to 10000 nM. Same read-out and setting: next, `C[C@@H]1CN(c2nc(-c3ccc(Cl)cc3)ccc2C(=O)NS(=O)(=O)c2cccnc2N)C(C)(C)C1` [Compound 2367, N-[(2-amino-3-pyridyl)sulfonyl]-6-(4-chlorophenyl)-2-[(4S)-2,2,4-trimethylpyrrolidin-1-yl]pyridine-3-carboxamide]: under 3000 nM. As to `CC(C)COc1cc(F)cc(-c2ccc(C(=O)NS(=O)(=O)c3cccc(N)n3)c(N3CCC[C@@H]3C(F)(F)F)n2)c1` [Compound 398, N-[(6-amino-2-pyridyl)sulfonyl]-6-(3-fluoro-5-isobutoxy-phenyl)-2-[(2R)-2-(trifluoromethyl)pyrrolidin-1-yl]pyridine-3-carboxamide], the 30% effect concentration (EC30) entry under setting [2] is listed as “+++ (“+++” means <3 uM)”. Turning to `Cc1cc(C)c(Oc2nc(C(C)(C)C)ccc2C(=O)NS(=O)(=O)c2cccc(C(=O)O)c2)c(C)c1` [Compound 205, 3-[[6-tert-butyl-2-(2,4,6-trimethylphenoxy)pyridine-3-carbonyl]sulfamoyl]benzoic acid], the EC30 entry under setting [2] was “++ (“++” means between 3 uM and 10 uM)”. Still for that read-out and setting: next, `CC(C)COc1cc(F)cc(-c2ccc(C(=O)NS(=O)(=O)c3cccc(N)n3)c(N3[C@H](C)CC[C@H]3C)n2)c1` [Compound 751, N-[(6-amino-2-pyridyl)sulfonyl]-2-[(2R,5R)-2,5-dimethylpyrrolidin-1-yl]-6-(3-fluoro-5-isobutoxy-phenyl)pyridine-3-carboxamide]: “+++ (“+++” means <3 uM)”. For the compound `COc1ccc(Cl)cc1COc1cccc(S(=O)(=O)NC(=O)c2cccnc2N2CC(C)CC2(C)C)n1` (centres unmarked) [Compound 2645, N—[[6-[(5-chloro-2-methoxy-phenyl)methoxy]-2-pyridyl]sulfonyl]-2-(2,2,4-trimethylpyrrolidin-1-yl)pyridine-3-carboxamide], under setting [1], the EC30 is under 3000 nM. The same measure, in the same setting: next, `Cc1ccc(F)cc1-c1ccc(C(=O)NS(=O)(=O)N2CC[C@H](N)C2)c(N2C[C@@H](C)CC2(C)C)n1` [Compound 2490, N-[(3S)-3-aminopyrrolidin-1-yl]sulfonyl-6-(5-fluoro-2-methyl-phenyl)-2-[(4S)-2,2,4-trimethylpyrrolidin-1-yl]pyridine-3-carboxamide]: under 3000 nM.

Consider `CC(C)(C)c1ccc(C(=O)NS(=O)(=O)c2ccccc2)c(OCc2ccccn2)n1` [Compound 154, N-(benzenesulfonyl)-6-tert-butyl-2-(2-pyridylmethoxy)pyridine-3-carboxamide], for which the concentration for an effect of 30% (EC30) entry under setting [2] is on record as “+++ (“+++” means <3 uM)”.

For the compound `Cc1cc(C)c(Oc2nc(-c3ccc4c(c3)OCCCO4)ccc2C(=O)NS(=O)(=O)c2cccc(N)n2)c(C)c1` [Compound 14, N-[(6-amino-2-pyridyl)sulfonyl]-6-(3,4-dihydro-2H-1,5-benzodioxepin-7-yl)-2-(2,4,6-trimethylphenoxy)pyridine-3-carboxamide], the EC30 entry under setting [2] is given as “+++ (“+++” means <3 uM)”. As to `CC1CN(c2ncc(-c3ccc(C(C)(C)C)cc3)cc2C(=O)NS(=O)(=O)c2cccc(N)n2)C(C)(C)C1` (centres unmarked) [Compound 2463, N-[(6-amino-2-pyridyl)sulfonyl]-5-(4-tert-butylpenyl)-2-(2,2,4-trimethylpyrrolidin-1-yl)pyridine-3-carboxamide], the EC30 under setting [1] was under 3000 nM. On to `CCOc1ccc(-c2ccc(C(=O)NS(=O)(=O)c3cccc(N)n3)c(Oc3ccc(C)cc3C)n2)cc1` [Compound 641, N-[(6-amino-2-pyridyl)sulfonyl]-2-(2,4-dimethylphenoxy)-6-(4-ethoxyphenyl)pyridine-3-carboxamide], for which the EC30 result under setting [2] is reported as “+++ (“+++” means <3 uM)”. For the compound `CCOc1ccc(F)cc1-c1ccc(C(=O)NS(=O)(=O)c2ccc[nH]c2=O)c(N2C[C@@H](C)CC2(C)C)n1` [Compound 2051, 6-(2-ethoxy-5-fluoro-phenyl)-N-[(2-oxo-1H-pyridin-3-yl)sulfonyl]-2-[(4S)-2,2,4-trimethylpyrrolidin-1-yl]pyridine-3-carboxamide], under setting [1], the EC30 is under 3000 nM.

As for `CC(C)COc1cc(F)cc(-c2ccc(C(=O)NS(=O)(=O)c3ccn[nH]3)c(N3CCC(F)CC3)n2)c1` [Compound 728, 6-(3-fluoro-5-isobutoxy-phenyl)-2-(4-fluoro-1-piperidyl)-N-(1H-pyrazol-5-ylsulfonyl)pyridine-3-carboxamide], under setting [2], the EC30 result was “++ (“++” means between 3 uM and 10 uM)”. Turning to `CC(C)COc1cc(F)cc(-c2ccc(C(=O)NS(=O)(=O)c3cccc(N)n3)c(N3CC(F)C3)n2)c1` [Compound 2128, N-[(6-amino-2-pyridyl)sulfonyl]-2-(3-fluoroazetidin-1-yl)-6-(3-fluoro-5-isobutoxy-phenyl)pyridine-3-carboxamide], under setting [1], the EC30 is 3000 to 10000 nM. For `Cc1cc(C)c(Cn2nc(CC(C)C)cc2C(=O)NS(=O)(=O)c2cccc(N)c2)c(C)c1` [Compound 167, N-(3-aminophenyl)sulfonyl-5-isobutyl-2-[(2,4,6-trimethylphenyl)methyl]pyrazole-3-carboxamide], the EC30 result under setting [2] is “++ (“++” means between 3 uM and 10 uM)”. Same read-out and setting: the result for `Cc1cccc(C)c1Cn1nc(-c2ccsc2)cc1C(=O)NS(=O)(=O)c1ccccc1` [Compound 357, N-(benzenesulfonyl)-2-[(2,6-dimethylphenyl)methyl]-5-(3-thienyl)pyrazole-3-carboxamide] reads “++ (“++” means between 3 uM and 10 uM)”. `CC1CN(c2ncccc2C(=O)NS(=O)(=O)c2cccc(NCCc3ccccn3)n2)C(C)(C)C1` (centres unmarked) [Compound 2359, N—[[6-[2-(2-pyridyl)ethylamino]-2-pyridyl]sulfonyl]-2-(2,2,4-trimethylpyrrolidin-1-yl)pyridine-3-carboxamide]: the 30% effect concentration (EC30) under setting [1] is 3000 to 10000 nM.

For `Cc1ccc(F)cc1-c1ccc(C(=O)NS(=O)(=O)c2cccc(N)n2)c(N2C[C@@H](C)CC2(C)C)n1` [Compound 2394, N-[(6-amino-2-pyridyl)sulfonyl]-6-(5-fluoro-2-methyl-phenyl)-2-[(4S)-2,2,4-trimethylpyrrolidin-1-yl]pyridine-3-carboxamide], under setting [1], the EC30 is under 3000 nM. Consider `CN=S(=O)(NC(=O)c1ccc(C(C)(C)C)nc1Oc1c(C)cc(C)cc1C)c1cccc(N)c1` (stereo not drawn) [Compound 568, N—[S-(3-aminophenyl)-N-methyl-sulfonimidoyl]-6-tert-butyl-2-(2,4,6-trimethylphenoxy)pyridine-3-carboxamide], for which the EC30 result under setting [2] is on record as “+++ (“+++” means <3 uM)”.

In the case of `CC(C)COc1cc(F)cc(-c2ccc(C(=O)NS(=O)(=O)c3cccc(O)c3)c(N3CC(C)CC3(C)C)n2)c1` (centres unmarked) [Compound 395, 6-(3-fluoro-5-isobutoxy-phenyl)-N-(3-hydroxyphenyl)sulfonyl-2-(2,2,4-trimethylpyrrolidin-1-yl)pyridine-3-carboxamide], the concentration for an effect of 30% (EC30) result under setting [2] was “+++ (“+++” means <3 uM)”. Regarding `CCOc1ccc(F)cc1-c1ccc(C(=O)NS(=O)(=O)c2cccnc2N)c(N2C[C@@H](C)CC2(C)C)n1` [Compound 2071, N-[(2-amino-3-pyridyl)sulfonyl]-6-(2-ethoxy-5-fluoro-phenyl)-2-[(4S)-2,2,4-trimethylpyrrolidin-1-yl]pyridine-3-carboxamide], under setting [1], the EC30 is under 3000 nM.

For the origin of these results see patent US10758534B2 (Vertex Pharmaceuticals Incorporated, priority 2014, dated 2020).
